Tests used:
[1] = Charge of predominate species in solution at physiological pH; format: physicochemical; settings: physiological pH = 7.4
HeLa cells = assay: Live cell fluorescence imaging: localization, co-localization and uptake; format: cell-based; settings: fluorescence microscopy, live HeLa cells (Table 1)
Protocol: FIG. 6 depicts live cell imaging of HeLa cells. 500 nM mitotracker Red was bath-applied along with 1 μM DA-ZP1-TPP for 30 min at 37° C. and 5% CO2. After exposure to 25 μM 1:2 zinc:pyrithione, fluorescent images were acquired and the co-localization of the two sensors was assessed. The calculated Pearson's correlation coefficient (r) was r=0.581±0.097 (n=9), which represents the average of 9 ROIs over three independent plates.
FIG. 14 depicts live cell imaging of HeLa cells. 1 μM Lysotracker Red was bath-applied along with 2 μM ZP1-TPP. The calculated Pearson's correlation coefficient (r) was r=0.45±0.15, which represents the average of 9 ROIs over three independent plates.
FIG. 24 depicts fluorescence images of live HeLa cells. HeLa cells were pretreated with a 1 μM solution of DA-ZP1-TPP in dye- and serum-free medium for 30 min (37° C., 5% CO2). […] The signal from MitoTracker Red (c) correlates well with the signal from the zinc-bound sensor (d). Pearson's r=0.64±0.1 (n=18).
FIG. 27 depicts deconvoluted fluorescence microscopy images of live HeLa cells pretreated with ZP1-R9 (5 μM) or DA-ZP1-R9 (2.5 μM) and the indicated organelle stain. Top, ZP1-R9: (a) Differential interference contrast (DIC) image, (b) signal from ZP1-R9, (c) signal from LysoTracker Red, (d) overlay of (b) and (c). Pearson's r=0.42±0.16 (n=8). Bottom, DA-ZP1-R9: (e) DIC, (f) signal from DA-ZP1-R9 after treatment with 25 μM ZnPT, (g) signal from Hoechst 33258, (h) overlay of (f) and (g). Scale bar=25 μm.
FIG. 29 depicts deconvoluted fluorescence microscopy images of live HeLa cells pretreated with 1 μM DA-ZP1-R9 and 100 nM Dextran Red. (a) Differential interference contrast (DIC), (b) signal from DA-ZP1-R9 after addition of 25 μM ZnPT (c) signal from Dextran Red, (d) overlay of (b) and (c). Pearson's r=0.55±0.12 (n=11). Scale bar=25 μm.
FIG. 31 depicts deconvoluted fluorescence microscopy images of ZP1-(Fxr)3 and DA-ZP1-r(Fxr)3 in live HeLa cells. Top, cells pretreated with medium containing 2.5 μM of ZP1-(Fxr)3: (a) Differential interference contrast (DIC) image, (b) signal from ZP1-(Fxr)3, (c) signal from Dextran Red, (d) overlay of (b) and (c). Pearson's r=0.71±0.07. Bottom, cells pretreated with 1 μM DA-ZP1-r(Fxr)3: (e) DIC, (f) signal from DA-ZP1-r(Fx)3 after treatment with 25 μM ZnPT, (g) signal from MitoTracker Red, (h) overlay of (f) and (g). Pearson's r=0.41±0.09. Scale bar=25 μm.
FIG. 33 depicts deconvoluted fluorescence microscopy images of DCF-r(Fxr)3 and DA-DCF-r(Fxr)3 in live HeLa cells. Top, cells pretreated with 5 μM DCF-r(Fxr)3 and 500 nM MitoTracker Red for 30 min. (a) differential contrast image (DIC), (b) signal from DCF-r(Fxr)3, (c) signal from MitoTracker Red. Bottom, cells pretreated with 5 μM DA-DCF-r(Fxr)3 and 500 nM MitoTracker Red for 30 min. (d) DIC, (e) signal from DCF-r(Fxr)3, (f) signal from MitoTracker Red. The global Pearson's r=0.57±0.16 (n=37). Cells with high levels of DA-DCF-r(Fxr)3 (e, red outline) have a higher Pearson's r=0.83±0.08 (n=10). Scale bar=25 μm.
We used HeLa cells as a model system to evaluate the ability of DA-ZP1-TPP to target mitochondria and respond to changes in intracellular zinc levels. […] Over a two-hour period, the fluorescence intensity from the sensor remained constant, implying that the acetylated form is stable against intracellular esterases (FIG. 24e). […] Addition of 100 μM TPEN attenuated the fluorescence signal by ˜2.4-fold (FIG. 24f). […]

[2] = Octanol/aqueous buffer partition coefficient (modified shake-flask); format: physicochemical; settings: octanol/water, buffered at pH 7 with 10 mM Tris
Description: To understand better the limitations of TPP in directing fluorophores to mitochondria, we prepared two additional TPP-derivatives, one based on 6-carboxyfluorescein (FL-TPP) and one on coumarin 343 (C343-TPP). […] To test this hypothesis, we conducted live cell fluorescence imaging experiments with FL-TPP. […] Not only did FL-TPP fail to accumulate in mitochondria, it was cell-impermeable under our imaging conditions. In contrast, the cationic C343-TPP strongly colocalized with MitoTracker Red in live HeLa cells (Pearson's r=0.72±0.02). To quantify the effect of hydrophobicity in mitochondrial-targeting, we measured the octanol/aqueous buffer partition coefficient (log P) for our TPP constructs and two MitoTracker dyes. We then tabulated the log P, charge of the predominate species in solution at physiological pH, and cellular localization for each dye (Table 1). […] Along with cationic charge, a minimum level of lipophilicity must be reached in order to evade endo/lysosomal sequestration and enable effective mitochondrial targeting.

[3] = Deacetylation kinetics monitored by UV-vis absorbance (metal-mediated and uncatalyzed hydrolysis); format: physicochemical; settings: analogous conditions, EDTA or ZnCl2
Protocol: (§1) FIG. 23 depicts kinetic traces for the deacetylation of DA-ZP1-TPP. The half-life for deacetylation of a 2.75 μM solution of DA-ZP1-TPP, at 37° C. in 50 mM PIPES buffer (pH 7) and 100 mM KCl, was measured in the presence of 125 μM ZnCl2 (+Zn), 250 μM EDTA (−Zn), or 1.25 units of porcine liver esterase (Esterase). The change in absorbance at 520 nm (EDTA and esterase) or 510 nm (ZnCl2) was used to monitor the reaction.
FIG. 26 depicts in vitro characterization of DA-ZP1-A3. (a) UV-vis and (b) fluorescence spectra of a 5 μM solution of DA-ZP1-A3 in buffer (50 mM PIPES, 100 mM KCl; pH 7). Spectra were acquired initially, upon addition of 100 μM ZnCl2, and again after addition of 200 μM EDTA. (c) Time-dependent change in the normalized absorbance of a ca. 5 μM solution DA-ZP1-A3 at 37° C. in buffer (50 mM PIPES, 100 mM KCl; pH 7) in the presence of 100 μM ZnCl2 (λabs=510 nm) or EDTA (λabs=520 nm). (d) Integrated fluorescence intensity of a 1 μM solution of ZP1-A3 (circles) or DA-ZP1-A3 (squares) as a function of pH. […]
DA-ZP1-TPP has a zinc-induced fluorescence response and is relatively stable to uncatalyzed hydrolysis and esterase activity. […] Other late 3d-block transition metal ions, such as Co(II) and Cu(II), can coordinate to DA-ZP1-TPP but are generally not available in appreciable chelatable quantities within the cell. […]

porcine liver esterase = assay: Deacetylation by porcine liver esterase (UV-vis absorbance); format: in vitro ADME; settings: analogous conditions, porcine liver esterase
Protocol: as §1
DA-ZP1-TPP has a zinc-induced fluorescence response and is relatively stable to uncatalyzed hydrolysis and esterase activity. […] Other late 3d-block transition metal ions, such as Co(II) and Cu(II), can coordinate to DA-ZP1-TPP but are generally not available in appreciable chelatable quantities within the cell. In addition to monitoring selectivity in the fluorescence response, we used UV-vis spectroscopy to investigate the rate and zinc-specificity of metal-mediated ester hydrolysis. DA-ZP1-TPP deacetylation results in opening of the lactone ring and restoration of conjugation across the xanthene ring. By monitoring the absorbance of the xanthene it system, we could interrogate deacetylation kinetics in a manner that is independent of the fluorescence response. […] To determine whether ester hydrolysis depends on the metal-binding core of DA-ZP1-TPP, we measured the deacetylation kinetics of fluorescein diacetate (DA-FL) under analogous conditions. […]

| SMILES | Charge of the predominate species in solution [1] | Localization (HeLa cells) | log P [2] | stability to hydrolysis and zinc-mediated deacetylation [3] | response to esterase (deacetylation) (porcine liver esterase) | logP ([2]; octanol/aqueous buffer) |
| --- | --- | --- | --- | --- | --- | --- |
| ClCc1ccc(C2=c3cc4c5c(c3Oc3c2cc2c6c3CCCN6CCC2)CCC[N+]=5CCC4)cc1.[Cl-] [Mitotracker Red, reference compound] | +1 | Mitochondria | 1.15 ± 0.04 | – | – | – |
| O=C(NCC[P+](c1ccccc1)(c1ccccc1)c1ccccc1)c1cc2cc3c4c(c2oc1=O)CCCN4CCC3 [C343-TPP] | +1 | Mitochondria | 0.72 ± 0.05 | – | – | – |
| CC(=O)Oc1ccc2c(c1)Oc1cc(OC(C)=O)ccc1C21OC(=O)c2ccccc21 [DA-FL, fluorescein diacetate, reference compound] | – | – | – | relatively stable to hydrolysis and zinc-mediated deacetylation | responds rapidly to esterase | – |
| CN1/C(=C/C=C/c2n(Cc3ccc(CCl)cc3)c3cc(Cl)c(Cl)cc3[n+]2Cc2ccc(CCl)cc2)Oc2ccccc21 [Mitotracker Green, reference compound] | +1 | Mitochondria | – | – | – | 0.56 ± 0.02 |
